Reference: paper PMC9833666, “Designing and identifying β-hairpin peptide macrocycles with antibiotic potential” (Science Advances, 2023)
Read-outs that look alike come from different tables or passages of the source. Bridge positions count the residues as written; N and C are the ends. Peptide text beside a SMILES is read from it.

Test system: Escherichia coli W3110
Type: cell-based
Settings: for Ec W3110 MIC MH: E. coli W3110, MH medium; for Ec W3110 MIC RPMI: E. coli W3110, RPMI medium

| Ec W3110 MIC MH [µg/mL] | Ec W3110 MIC RPMI [µg/mL] | W3110 MIC MH (W3110) [µg/mL] | W3110 MIC RPMI (W3110) [µg/mL] | W3110 MIC (W3110) [µg/mL] | W3110 MIC MH (E. coli W3110, standard Mueller-Hinton broth, 37°C, 18-24 h, median of n=3) [µg/mL] | SMILES |
| --- | --- | --- | --- | --- | --- | --- |
| 32 | 32 | 32 | 32 | – | – | CC(C)C[C@@H]1NC(=O)[C@H](CCCNC(=N)N)NC(=O)[C@H](CCCNC(=N)N)NC(=O)[C@H](CCCNC(=N)N)NC(=O)[C@H](CCCNC(=N)N)NC(=O)[C@H](CC(N)=O)NC(=O)[C@H](CC(N)=O)NC(=O)[C@H](CC(C)C)NC(=O)[C@H](CCCNC(=N)N)NC(=O)[C@H](C(C)C)NC(=O)[C@H](CCCNC(=N)N)NC(=O)[C@H](C(C)C)NC(=O)[C@@H](N)CSSC[C@@H](C(=O)O)NC(=O)[C@H](C(C)C)NC(=O)[C@H](CCC(=O)O)NC(=O)[C@H](CC(C)C)NC(=O)[C@H](CO)NC(=O)[C@H](C(C)C)NC(=O)[C@H](CCCCN)NC1=O [SySA-16] (H-CVRVRLNNRRRRLKVSLEVC-OH; disulfide 1-20; N-terminus and C-terminus assumed) |
| 32 | 8 | 32 | 8 | – | – | CC[C@H](C)[C@@H]1NC(=O)[C@H](CCCNC(=N)N)NC(=O)[C@H](C(C)C)NC(=O)[C@@H](N)CSSC[C@@H](C(=O)O)NC(=O)[C@H](C(C)C)NC(=O)[C@H](CCC(N)=O)NC(=O)[C@H](CC(C)C)NC(=O)[C@H](CO)NC(=O)[C@H](C(C)C)NC(=O)[C@H](CCCCN)NC(=O)[C@H](CC(C)C)NC(=O)CNC(=O)[C@H](CCCNC(=N)N)NC(=O)[C@H](CCCNC(=N)N)NC(=O)[C@H](CCCNC(=N)N)NC(=O)[C@H](CC(N)=O)NC(=O)[C@H](CC(N)=O)NC(=O)[C@H](CC(C)C)NC(=O)[C@H](CCCNC(=N)N)NC1=O [SySA-40] (H-CVRIRLNNRRRGLKVSLQVC-OH; disulfide 1-20; N-terminus and C-terminus assumed) |
| 128 | 8 | – | 8 | – | 128 | CC[C@H](C)[C@@H]1NC(=O)[C@H](CCCCN)NC(=O)[C@H](CC(C)C)NC(=O)CNC(=O)[C@H](CCCNC(=N)N)NC(=O)[C@H](CCCNC(=N)N)NC(=O)[C@H](CCCNC(=N)N)NC(=O)[C@H](CC(N)=O)NC(=O)[C@H](CC(N)=O)NC(=O)[C@H](CC(C)C)NC(=O)[C@H](CCCNC(=N)N)NC(=O)[C@H](C(C)C)NC(=O)[C@H](CCCNC(=N)N)NC(=O)[C@H](C(C)C)NC(=O)[C@@H](N)CSSC[C@@H](C(=O)O)NC(=O)[C@H](C(C)C)NC(=O)[C@H](CCC(N)=O)NC(=O)[C@H](CC(C)C)NC(=O)[C@H](CO)NC1=O [SySA-9] (H-CVRVRLNNRRRGLKISLQVC-OH; disulfide 1-20; N-terminus and C-terminus assumed) |
| 32 | 16 | 32 | 16 | – | – | CC[C@H](C)[C@@H]1NC(=O)[C@H](CCCNC(=N)N)NC(=O)[C@H](C(C)C)NC(=O)[C@@H](N)CSSC[C@@H](C(=O)O)NC(=O)[C@H](C(C)C)NC(=O)[C@H](CCC(N)=O)NC(=O)[C@H](C(C)C)NC(=O)[C@H](CO)NC(=O)[C@H](C(C)C)NC(=O)[C@H](CCCCN)NC(=O)[C@H](C(C)C)NC(=O)[C@H](CCCNC(=N)N)NC(=O)[C@H](CCCNC(=N)N)NC(=O)[C@H](CCCNC(=N)N)NC(=O)[C@H](CCCNC(=N)N)NC(=O)[C@H](CC(N)=O)NC(=O)[C@H](CC(N)=O)NC(=O)[C@H](C(C)C)NC(=O)[C@H](CCCNC(=N)N)NC1=O [SySA-62] (H-CVRIRVNNRRRRVKVSVQVC-OH; disulfide 1-20; N-terminus and C-terminus assumed) |
| 256 | 32 | 256 | 32 | – | – | CC[C@H](C)[C@@H]1NC(=O)[C@H](CC(N)=O)NC(=O)[C@H]([C@@H](C)CC)NC(=O)[C@H](CCCNC(=N)N)NC(=O)[C@H](C(C)C)NC(=O)[C@H](CCCNC(=N)N)NC(=O)[C@@H](N)CSSC[C@@H](C(=O)O)NC(=O)[C@H](CCC(N)=O)NC(=O)[C@H](CC(C)C)NC(=O)[C@H](CCC(N)=O)NC(=O)[C@H](CC(C)C)NC(=O)[C@H](CCCCN)NC(=O)[C@H](C(C)C)NC(=O)[C@H](CCCNC(=N)N)NC(=O)[C@H](CCCNC(=N)N)NC(=O)[C@H](CCCNC(=N)N)NC(=O)CNC(=O)[C@H](CC(N)=O)NC(=O)[C@H](CC(N)=O)NC1=O [SySA-7] (H-CRVRININNGRRRVKLQLQC-OH; disulfide 1-20; N-terminus and C-terminus assumed) |
| 256 | 64 | 256 | 64 | – | – | CC[C@H](C)[C@@H]1NC(=O)[C@H](CCCNC(=N)N)NC(=O)[C@H](CC(C)C)NC(=O)CNC(=O)CNC(=O)CNC(=O)[C@H](CCCNC(=N)N)NC(=O)[C@H](CC(N)=O)NC(=O)[C@H](CC(N)=O)NC(=O)[C@H](CC(C)C)NC(=O)[C@H](CCCNC(=N)N)NC(=O)[C@H](C(C)C)NC(=O)[C@H](CCCNC(=N)N)NC(=O)[C@H](C(C)C)NC(=O)[C@@H](N)CSSC[C@@H](C(=O)O)NC(=O)[C@H](C(C)C)NC(=O)[C@H](CCC(N)=O)NC(=O)[C@H](CC(C)C)NC(=O)[C@H]([C@@H](C)O)NC1=O [SySA-27] (H-CVRVRLNNRGGGLRITLQVC-OH; disulfide 1-20; N-terminus and C-terminus assumed) |
| 32 | 8 | 32 | 8 | – | – | CC[C@H](C)[C@@H]1NC(=O)[C@H](CCCNC(=N)N)NC(=O)[C@H](C(C)C)NC(=O)[C@@H](N)CSSC[C@@H](C(=O)O)NC(=O)[C@H](C(C)C)NC(=O)[C@H](CCC(=O)O)NC(=O)[C@H](CC(C)C)NC(=O)[C@H](CO)NC(=O)[C@H](C(C)C)NC(=O)[C@H](CCCCN)NC(=O)[C@H](C(C)C)NC(=O)[C@H](CCCNC(=N)N)NC(=O)[C@H](CCCNC(=N)N)NC(=O)[C@H](CCCNC(=N)N)NC(=O)[C@H](CCCNC(=N)N)NC(=O)[C@H](CC(N)=O)NC(=O)[C@H](CC(N)=O)NC(=O)[C@H](CC(C)C)NC(=O)[C@H](CCCNC(=N)N)NC1=O [SySA-37] (H-CVRIRLNNRRRRVKVSLEVC-OH; disulfide 1-20; N-terminus and C-terminus assumed) |

More lines, now with the values behind:

| SMILES | Ec W3110 MIC MH [µg/mL] | Ec W3110 MIC RPMI [µg/mL] | W3110 MIC MH (W3110) [µg/mL] | W3110 MIC RPMI (W3110) [µg/mL] | W3110 MIC (W3110) [µg/mL] | W3110 MIC MH (E. coli W3110, standard Mueller-Hinton broth, 37°C, 18-24 h, median of n=3) [µg/mL] |
| --- | --- | --- | --- | --- | --- | --- |
| CC[C@H](C)[C@@H]1NC(=O)[C@H](CCCNC(=N)N)NC(=O)[C@H](C(C)C)NC(=O)[C@H](CCCNC(=N)N)NC(=O)[C@@H](N)CSSC[C@@H](C(=O)O)NC(=O)[C@H](CCC(=O)O)NC(=O)[C@H](C(C)C)NC(=O)[C@H](CCC(N)=O)NC(=O)[C@H](CC(C)C)NC(=O)[C@H](CCCCN)NC(=O)[C@H](CC(C)C)NC(=O)[C@H](CCCNC(=N)N)NC(=O)CNC(=O)[C@H](CCCNC(=N)N)NC(=O)[C@H](CCCNC(=N)N)NC(=O)[C@H](CC(=O)O)NC(=O)[C@H](CC(=O)O)NC(=O)[C@H](C(C)C)NC(=O)[C@H](CC(N)=O)NC1=O [SyRC-1] (H-CRVRINVDDRRGRLKLQVEC-OH; disulfide 1-20) | – | – | – | – | >256 | – |
| CC[C@H](C)[C@@H]1NC(=O)[C@H](CCCNC(=N)N)NC(=O)[C@H](CC(C)C)NC(=O)[C@H](CCCNC(=N)N)NC(=O)[C@H](CO)NC(=O)[C@H](CCCNC(=N)N)NC(=O)[C@H](CCCNC(=N)N)NC(=O)[C@H](CC(=O)O)NC(=O)[C@H](CC(N)=O)NC(=O)[C@H](CC(C)C)NC(=O)[C@H](CCCNC(=N)N)NC(=O)[C@H](C(C)C)NC(=O)[C@H]([C@@H](C)O)NC(=O)[C@H](C(C)C)NC(=O)[C@@H](N)CSSC[C@@H](C(=O)O)NC(=O)[C@H](C(C)C)NC(=O)[C@H](CCC(=O)O)NC(=O)[C@H](CC(C)C)NC(=O)[C@H]([C@@H](C)O)NC1=O [SyRA-15] (H-CVTVRLNDRRSRLRITLEVC-OH; disulfide 1-20) | – | – | – | – | >256 | – |
| CC[C@H](C)[C@@H]1NC(=O)[C@H](CCCNC(=N)N)NC(=O)[C@H](C(C)C)NC(=O)[C@H](CCCNC(=N)N)NC(=O)[C@@H](N)CSSC[C@@H](C(=O)O)NC(=O)[C@H](CCC(N)=O)NC(=O)[C@H](C(C)C)NC(=O)[C@H](CCC(N)=O)NC(=O)[C@H](CC(C)C)NC(=O)[C@H](CCCCN)NC(=O)[C@H](CC(C)C)NC(=O)[C@H]([C@@H](C)O)NC(=O)CNC(=O)CNC(=O)[C@H](CCCNC(=N)N)NC(=O)[C@H](CC(N)=O)NC(=O)[C@H](CC(=O)O)NC(=O)[C@H](C(C)C)NC(=O)[C@H](CC(N)=O)NC1=O [SyRC-11] (H-CRVRINVDNRGGTLKLQVQC-OH; disulfide 1-20) | – | – | – | – | >256 | – |
| CC[C@H](C)[C@@H]1NC(=O)[C@H](CCCNC(=N)N)NC(=O)[C@H](C(C)C)NC(=O)CNC(=O)[C@H](CO)NC(=O)[C@H](CCCNC(=N)N)NC(=O)CNC(=O)[C@H](CC(N)=O)NC(=O)[C@H](CC(=O)O)NC(=O)[C@H](CC(C)C)NC(=O)[C@H](CCCNC(=N)N)NC(=O)[C@H](C(C)C)NC(=O)[C@H]([C@@H](C)O)NC(=O)[C@H](C(C)C)NC(=O)[C@@H](N)CSSC[C@@H](C(=O)O)NC(=O)[C@H](C(C)C)NC(=O)[C@H](CCC(N)=O)NC(=O)[C@H](C(C)C)NC(=O)[C@H](CO)NC1=O [SyRA-13] (H-CVTVRLDNGRSGVRISVQVC-OH; disulfide 1-20) | – | – | – | – | >256 | – |
| CC(C)C[C@@H]1NC(=O)[C@H](CCC(=O)O)NC(=O)[C@H](CC(C)C)NC(=O)[C@H](CCCCN)NC(=O)[C@H](CC(C)C)NC(=O)[C@H](CCCNC(=N)N)NC(=O)[C@H](CCCNC(=N)N)NC(=O)CNC(=O)[C@H](CCCNC(=N)N)NC(=O)[C@H](CC(=O)O)NC(=O)[C@H](CC(=O)O)NC(=O)[C@H](C(C)C)NC(=O)[C@H](CC(N)=O)NC(=O)[C@H](C(C)C)NC(=O)[C@H](CCCCN)NC(=O)[C@H](C(C)C)NC(=O)[C@H](CCCNC(=N)N)NC(=O)[C@@H](N)CSSC[C@@H](C(=O)O)NC(=O)[C@H](CCC(N)=O)NC1=O [SyRC-15] (H-CRVKVNVDDRGRRLKLELQC-OH; disulfide 1-20) | – | – | – | – | >256 | – |
| CC[C@H](C)[C@@H]1NC(=O)[C@H](CCCNC(=N)N)NC(=O)[C@H]([C@@H](C)CC)NC(=O)[C@H](CCCNC(=N)N)NC(=O)[C@@H](N)CSSC[C@@H](C(=O)O)NC(=O)[C@H](CCC(=O)O)NC(=O)[C@H](C(C)C)NC(=O)[C@H](CCC(N)=O)NC(=O)[C@H](CC(C)C)NC(=O)[C@H](CCCNC(=N)N)NC(=O)[C@H](C(C)C)NC(=O)[C@H]([C@@H](C)O)NC(=O)CNC(=O)CNC(=O)CNC(=O)[C@H](CC(N)=O)NC(=O)[C@H](CC(=O)O)NC(=O)[C@H](C(C)C)NC(=O)[C@H](CC(N)=O)NC1=O [SyRC-12] (H-CRIRINVDNGGGTVRLQVEC-OH; disulfide 1-20) | – | – | – | – | >256 | – |
